We go through three compounds from patent US8246985B2, “Pharmaceutical composition comprising lipase inhibitor and lipophilic oil absorbent and oral formulation prepared therefrom” (Amorepacific Corporation, priority 2006, dated 2012).

A short description of this data set: Oil adsorption test for selection of lipophilic oil absorbent. The settings on record: for Amount of remained oil: 1.5 g substance (0.1 g hydroxypropyl methyl cellulose and polyethylene oxide, 0.5 g light anhydrous silicic acid), 5 g soybean oil, 15 g purified water, mixed 2 min, centrifuged 3,000 g 5 min, weight of supernatant oil layer; for Adsorption (%): ratio of oil adsorbed (dispersants: oil within dispersing layer) to total oil amount (5 g). It is filed as physicochemical. Here is the method: In order to select a lipophilic oil absorbent that is capable of adsorbing unabsorbed free oil by the action of a lipase inhibitor, various substances known as a dispersant or adsorbent were subjected to an adsorption test as follows. 1.5 g of each ingredient listed in Table 1 (excepted for 0.1 g of each of hydroxypropyl methyl cellulose and polyethylene oxide, 0.5 g of light anhydrous silicic acid), 5 g of soybean oil and 15 g of purified water were mixed in a test tube for 2 minutes and centrifuged at 3,000 g for 5 minutes. After separating the supernatant oil layer, the oil adsorption degree of each substance was determined.
In table 1, the amount of oil remained was measured from the weight of the oil layer after adsorption, and the adsorption (%) means the ratio of the amount of oil adsorbed (which is obtained by subtracting the remained oil amount from the total oil amount) to the total amount of oil. On using a dispersant, the amount of oil remained means the oil amount of a supernatant excepting oil dispersed layer, and the adsorption (%) means the ratio of the oil amount within the dispersing layer to the total oil amount (5 g).

For `CCCCCCCCCCCCOS(=O)(=O)[O-].[Na+]` [Sodium lauryl sulfate], the “Amount of remained oil” value is 0.00 g. The “Adsorption (%)” value (sulfate) stood at 100%.

Regarding Polyoxyethylene(2) cetyl ether, the “Amount of remained oil” value is 2.79 g and the “Adsorption (%)” value is recorded as 2.79%.

Sorbitan trioleate: the “Amount of remained oil” value was found to be 0.17 g and the “Adsorption (%)” value stood at 1.13%.
